PMC7366380, “Discovery of a Potent and Selective Covalent Inhibitor and Activity-Based Probe for the Deubiquitylating Enzyme UCHL1, with Antifibrotic Activity” (Journal of the American Chemical Society, 2020)
Several values for one entry are separate records, joined by “and”; a condition that tells them apart may be missing. Equal entries are not always repeated.

Columns and labels:
Experiment in all cases: In-cell proteome-wide competitive ABPP, HEK293: other DUBs and proteins
[1] = target: DUBs and other proteins in HEK293 cells (Homo sapiens, UniProt Q9Y5T5); settings: replicates A-C; for Log2 reporter intensity values: USP16: competition with ABP 2, DMSO substract (FC); for Log2 reporter intensity values: USP16, DMSO subtracted
Sequence of DUBs and other proteins in HEK293 cells (Homo sapiens, UniProt Q9Y5T5) (Q9Y5T5 whole entry): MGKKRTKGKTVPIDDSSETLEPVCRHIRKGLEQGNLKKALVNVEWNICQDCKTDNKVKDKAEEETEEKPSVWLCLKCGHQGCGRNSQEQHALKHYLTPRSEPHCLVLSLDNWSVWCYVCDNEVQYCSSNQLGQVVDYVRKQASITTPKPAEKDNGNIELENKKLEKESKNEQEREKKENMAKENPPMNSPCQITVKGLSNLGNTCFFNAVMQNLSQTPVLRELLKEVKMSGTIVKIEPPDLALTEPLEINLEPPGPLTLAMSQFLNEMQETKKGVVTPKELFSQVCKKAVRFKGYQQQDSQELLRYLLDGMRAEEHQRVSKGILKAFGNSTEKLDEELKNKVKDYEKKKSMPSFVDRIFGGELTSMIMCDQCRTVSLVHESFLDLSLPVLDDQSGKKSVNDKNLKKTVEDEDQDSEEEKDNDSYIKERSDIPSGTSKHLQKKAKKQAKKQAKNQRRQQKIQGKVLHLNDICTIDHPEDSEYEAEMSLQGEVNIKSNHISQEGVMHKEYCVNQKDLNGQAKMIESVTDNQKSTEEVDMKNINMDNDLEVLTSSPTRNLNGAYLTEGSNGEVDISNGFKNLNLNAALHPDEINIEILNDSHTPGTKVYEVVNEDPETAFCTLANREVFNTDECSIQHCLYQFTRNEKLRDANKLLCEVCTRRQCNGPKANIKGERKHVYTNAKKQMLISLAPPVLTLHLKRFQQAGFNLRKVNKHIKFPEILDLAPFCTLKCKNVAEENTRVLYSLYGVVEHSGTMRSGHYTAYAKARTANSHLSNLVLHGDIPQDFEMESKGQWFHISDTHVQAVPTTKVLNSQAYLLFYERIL

[2] = target: DUBs and other proteins in HEK293 cells (Homo sapiens, UniProt Q9UPU5); settings: replicates A-C; for Log2 reporter intensity values: USP24: competition with ABP 2, DMSO substract (FC); for Log2 reporter intensity values: USP24, DMSO subtracted
Sequence of DUBs and other proteins in HEK293 cells (Homo sapiens, UniProt Q9UPU5) (Q9UPU5 whole entry): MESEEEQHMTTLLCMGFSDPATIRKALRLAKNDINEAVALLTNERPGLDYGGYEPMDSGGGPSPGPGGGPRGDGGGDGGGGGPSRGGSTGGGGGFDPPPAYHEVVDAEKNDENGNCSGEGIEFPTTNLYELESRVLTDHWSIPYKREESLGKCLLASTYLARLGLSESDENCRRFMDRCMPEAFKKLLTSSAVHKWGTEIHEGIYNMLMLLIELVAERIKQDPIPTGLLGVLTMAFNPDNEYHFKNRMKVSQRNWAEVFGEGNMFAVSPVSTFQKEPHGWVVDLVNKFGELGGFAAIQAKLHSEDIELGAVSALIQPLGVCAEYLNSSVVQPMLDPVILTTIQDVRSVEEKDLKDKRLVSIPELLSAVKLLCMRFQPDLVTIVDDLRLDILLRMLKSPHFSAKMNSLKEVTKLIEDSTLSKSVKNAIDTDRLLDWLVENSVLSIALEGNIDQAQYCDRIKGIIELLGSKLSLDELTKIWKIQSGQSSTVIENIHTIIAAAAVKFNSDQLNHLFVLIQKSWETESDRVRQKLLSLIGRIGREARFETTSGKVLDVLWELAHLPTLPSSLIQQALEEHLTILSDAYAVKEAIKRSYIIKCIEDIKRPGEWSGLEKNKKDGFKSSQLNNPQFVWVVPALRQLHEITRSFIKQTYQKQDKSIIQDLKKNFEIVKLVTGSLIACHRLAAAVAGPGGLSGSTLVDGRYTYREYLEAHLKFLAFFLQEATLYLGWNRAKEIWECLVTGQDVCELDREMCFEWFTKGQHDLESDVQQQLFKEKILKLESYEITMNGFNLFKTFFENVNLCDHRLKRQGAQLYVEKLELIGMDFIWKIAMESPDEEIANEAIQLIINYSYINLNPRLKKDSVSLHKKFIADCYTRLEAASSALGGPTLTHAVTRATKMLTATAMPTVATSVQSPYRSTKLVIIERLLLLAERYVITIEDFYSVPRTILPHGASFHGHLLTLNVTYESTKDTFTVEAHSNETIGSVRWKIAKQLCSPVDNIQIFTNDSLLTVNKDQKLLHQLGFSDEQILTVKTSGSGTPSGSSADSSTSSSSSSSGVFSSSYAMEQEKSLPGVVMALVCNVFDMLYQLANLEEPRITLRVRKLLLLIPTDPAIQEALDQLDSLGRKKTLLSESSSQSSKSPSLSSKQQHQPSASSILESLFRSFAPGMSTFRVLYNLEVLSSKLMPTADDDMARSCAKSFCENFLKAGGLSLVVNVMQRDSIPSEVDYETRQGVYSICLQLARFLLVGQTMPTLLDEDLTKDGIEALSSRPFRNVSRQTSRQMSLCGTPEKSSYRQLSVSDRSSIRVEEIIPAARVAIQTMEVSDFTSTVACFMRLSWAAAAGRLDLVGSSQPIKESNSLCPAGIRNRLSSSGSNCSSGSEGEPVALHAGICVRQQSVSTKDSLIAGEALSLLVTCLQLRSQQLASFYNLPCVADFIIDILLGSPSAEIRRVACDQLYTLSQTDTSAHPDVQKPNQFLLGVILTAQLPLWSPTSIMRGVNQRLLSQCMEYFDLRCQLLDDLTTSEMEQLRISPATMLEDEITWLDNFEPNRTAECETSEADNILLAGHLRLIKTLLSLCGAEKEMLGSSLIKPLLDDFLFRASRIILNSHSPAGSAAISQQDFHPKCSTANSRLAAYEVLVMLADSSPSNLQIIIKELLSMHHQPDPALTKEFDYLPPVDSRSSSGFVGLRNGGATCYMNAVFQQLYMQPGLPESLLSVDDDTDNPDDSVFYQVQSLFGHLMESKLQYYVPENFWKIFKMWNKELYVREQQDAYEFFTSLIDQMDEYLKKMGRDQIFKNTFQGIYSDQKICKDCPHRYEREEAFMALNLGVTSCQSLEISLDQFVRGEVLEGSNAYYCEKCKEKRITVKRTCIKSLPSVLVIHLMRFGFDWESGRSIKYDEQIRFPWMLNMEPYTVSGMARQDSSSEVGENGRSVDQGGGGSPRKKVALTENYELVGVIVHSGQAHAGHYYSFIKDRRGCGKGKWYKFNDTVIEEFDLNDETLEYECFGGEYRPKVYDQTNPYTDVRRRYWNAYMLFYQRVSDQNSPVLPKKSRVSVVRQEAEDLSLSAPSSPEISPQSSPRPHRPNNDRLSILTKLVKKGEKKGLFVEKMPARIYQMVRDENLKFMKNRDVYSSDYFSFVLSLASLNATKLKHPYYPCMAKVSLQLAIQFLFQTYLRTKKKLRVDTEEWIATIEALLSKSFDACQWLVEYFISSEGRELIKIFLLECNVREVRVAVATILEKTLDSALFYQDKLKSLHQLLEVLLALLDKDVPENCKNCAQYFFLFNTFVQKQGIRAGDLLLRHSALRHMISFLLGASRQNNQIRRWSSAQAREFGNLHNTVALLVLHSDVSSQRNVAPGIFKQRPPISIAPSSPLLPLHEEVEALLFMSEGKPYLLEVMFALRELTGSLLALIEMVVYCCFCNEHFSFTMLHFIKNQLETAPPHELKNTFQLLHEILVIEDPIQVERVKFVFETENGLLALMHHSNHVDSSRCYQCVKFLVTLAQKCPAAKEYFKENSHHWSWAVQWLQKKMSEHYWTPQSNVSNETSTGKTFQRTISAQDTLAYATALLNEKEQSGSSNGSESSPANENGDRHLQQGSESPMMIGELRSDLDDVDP

[3] = target: T1, DUBs and other proteins in HEK293 cells (Homo sapiens, UniProt P40818); settings: for Log2 reporter intensity values: USP8: competition with ABP 2, DMSO substract (FC), replicates A-B; for Log2 reporter intensity values: USP8, DMSO subtracted
T1 sequence (P40818 1-1118): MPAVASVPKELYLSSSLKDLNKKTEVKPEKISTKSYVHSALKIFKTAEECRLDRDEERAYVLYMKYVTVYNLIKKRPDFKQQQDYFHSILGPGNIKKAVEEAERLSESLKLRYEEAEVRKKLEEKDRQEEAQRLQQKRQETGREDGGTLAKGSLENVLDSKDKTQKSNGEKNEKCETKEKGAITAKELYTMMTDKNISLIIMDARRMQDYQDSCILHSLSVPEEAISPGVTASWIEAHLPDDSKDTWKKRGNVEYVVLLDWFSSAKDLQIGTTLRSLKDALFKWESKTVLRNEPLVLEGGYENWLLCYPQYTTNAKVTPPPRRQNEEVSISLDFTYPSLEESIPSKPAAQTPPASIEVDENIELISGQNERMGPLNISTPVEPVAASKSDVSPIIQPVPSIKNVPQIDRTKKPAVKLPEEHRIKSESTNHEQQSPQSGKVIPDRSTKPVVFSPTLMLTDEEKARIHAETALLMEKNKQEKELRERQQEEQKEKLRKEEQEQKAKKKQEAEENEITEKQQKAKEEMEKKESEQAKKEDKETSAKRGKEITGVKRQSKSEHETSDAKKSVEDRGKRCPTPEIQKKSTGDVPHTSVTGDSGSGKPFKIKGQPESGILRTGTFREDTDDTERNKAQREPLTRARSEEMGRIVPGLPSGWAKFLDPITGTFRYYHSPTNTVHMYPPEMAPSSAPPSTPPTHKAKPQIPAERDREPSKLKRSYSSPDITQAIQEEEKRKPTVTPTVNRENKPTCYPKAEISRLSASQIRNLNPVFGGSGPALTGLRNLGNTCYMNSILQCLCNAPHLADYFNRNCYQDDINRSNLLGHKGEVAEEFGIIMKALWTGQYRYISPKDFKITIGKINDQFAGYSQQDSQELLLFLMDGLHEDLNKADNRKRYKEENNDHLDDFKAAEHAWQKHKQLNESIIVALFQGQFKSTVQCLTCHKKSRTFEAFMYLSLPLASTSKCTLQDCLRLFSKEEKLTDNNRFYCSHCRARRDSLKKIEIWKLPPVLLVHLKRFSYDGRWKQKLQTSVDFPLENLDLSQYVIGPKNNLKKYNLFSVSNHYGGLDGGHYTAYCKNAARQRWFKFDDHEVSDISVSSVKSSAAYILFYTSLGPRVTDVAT

[4] = target: DUBs and other proteins in HEK293 cells (Homo sapiens, UniProt P54578); settings: replicates A-C; for Log2 reporter intensity values: USP14: competition with ABP 2, DMSO substract (FC); for Log2 reporter intensity values: USP14, DMSO subtracted
Sequence of DUBs and other proteins in HEK293 cells (Homo sapiens, UniProt P54578) (P54578 whole entry): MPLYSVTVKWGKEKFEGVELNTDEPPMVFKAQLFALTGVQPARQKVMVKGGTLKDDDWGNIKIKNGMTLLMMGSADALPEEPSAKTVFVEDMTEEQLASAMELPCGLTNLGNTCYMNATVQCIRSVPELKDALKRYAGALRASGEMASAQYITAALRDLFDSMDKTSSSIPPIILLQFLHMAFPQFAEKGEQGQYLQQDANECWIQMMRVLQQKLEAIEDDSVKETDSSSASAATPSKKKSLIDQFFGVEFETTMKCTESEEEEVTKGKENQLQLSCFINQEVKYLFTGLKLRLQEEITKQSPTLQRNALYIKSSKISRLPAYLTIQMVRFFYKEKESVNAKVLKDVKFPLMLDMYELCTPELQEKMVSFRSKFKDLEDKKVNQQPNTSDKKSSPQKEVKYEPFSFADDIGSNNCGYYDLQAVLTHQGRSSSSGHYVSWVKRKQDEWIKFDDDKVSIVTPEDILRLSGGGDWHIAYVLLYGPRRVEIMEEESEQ

[5] = target: T2, DUBs and other proteins in HEK293 cells (Homo sapiens, UniProt Q96RU2); settings: replicates A-C; for Log2 reporter intensity values: USP28: competition with ABP 2, DMSO substract (FC); for Log2 reporter intensity values: USP28, DMSO subtracted
T2 sequence (Q96RU2 1-1077): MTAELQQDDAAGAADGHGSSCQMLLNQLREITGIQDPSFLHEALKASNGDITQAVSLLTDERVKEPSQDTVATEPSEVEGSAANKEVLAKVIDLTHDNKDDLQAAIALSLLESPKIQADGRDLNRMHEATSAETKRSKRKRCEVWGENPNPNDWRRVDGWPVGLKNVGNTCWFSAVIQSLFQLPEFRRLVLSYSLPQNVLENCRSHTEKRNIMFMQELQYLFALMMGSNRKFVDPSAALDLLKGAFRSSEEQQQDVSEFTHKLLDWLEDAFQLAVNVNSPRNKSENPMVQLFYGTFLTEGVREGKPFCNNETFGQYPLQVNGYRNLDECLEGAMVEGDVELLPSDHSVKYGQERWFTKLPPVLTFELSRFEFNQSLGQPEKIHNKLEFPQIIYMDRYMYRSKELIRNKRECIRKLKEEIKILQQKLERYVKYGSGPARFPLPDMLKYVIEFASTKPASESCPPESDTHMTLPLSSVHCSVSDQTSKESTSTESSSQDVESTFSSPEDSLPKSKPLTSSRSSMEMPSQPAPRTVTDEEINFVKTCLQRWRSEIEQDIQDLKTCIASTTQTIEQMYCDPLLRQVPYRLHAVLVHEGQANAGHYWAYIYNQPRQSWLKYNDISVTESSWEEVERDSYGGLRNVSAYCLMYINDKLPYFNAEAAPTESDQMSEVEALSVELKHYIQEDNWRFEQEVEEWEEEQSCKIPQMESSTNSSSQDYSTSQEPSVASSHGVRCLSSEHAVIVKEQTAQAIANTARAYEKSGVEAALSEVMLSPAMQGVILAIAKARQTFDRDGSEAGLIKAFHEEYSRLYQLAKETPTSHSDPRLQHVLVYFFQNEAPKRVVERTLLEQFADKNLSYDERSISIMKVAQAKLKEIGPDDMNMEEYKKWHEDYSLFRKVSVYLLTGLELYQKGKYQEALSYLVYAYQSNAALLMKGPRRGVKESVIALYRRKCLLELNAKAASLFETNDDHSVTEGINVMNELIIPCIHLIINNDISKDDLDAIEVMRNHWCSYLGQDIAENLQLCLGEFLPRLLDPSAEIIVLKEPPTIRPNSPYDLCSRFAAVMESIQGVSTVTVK

SMILES: N#CN1CCC[C@@H]1C(=O)N1CCc2c(-c3c[nH]c4ncccc34)cccc21 [Compound 3]
- Log2 reporter intensity values: USP16 ([1]; 3 at 1 μM): 1.04 and 1.242 and 1.156
- Log2 reporter intensity values: USP16 ([1]; 3 at 4 μM): 1.088 and 0.9104 and 1.039
- Log2 reporter intensity values ([1]; 3_1 μM): 0.03732 and 0.2403 and 0.1536
- Log2 reporter intensity values ([1]; 3_4 μM): 0.08611 and -0.09176 and 0.0368
- Log2 reporter intensity values ([1]; 3 at 1 μM): 0.0559 and 0.3132 and 0.2089
- Log2 reporter intensity values ([1]; 3 at 4 μM): 0.1221 and -0.1354 and 0.05518
- Log2 reporter intensity values: USP24 ([2]; 3 at 1 μM): 1.062 and 1.01 and 1.397
- Log2 reporter intensity values: USP24 ([2]; 3 at 4 μM): 1.531 and 1.061 and 0.663
- Log2 reporter intensity values ([2]; 3_1 μM): 0.05897 and 0.007121 and 0.3935
- Log2 reporter intensity values ([2]; 3_4 μM): 0.5273 and 0.05764 and -0.3403
- Log2 reporter intensity values ([2]; 3 at 1 μM): 0.08723 and 0.01505 and 0.4822
- Log2 reporter intensity values ([2]; 3 at 4 μM): 0.6141 and 0.08543 and -0.5928
- Log2 reporter intensity values: USP8 ([3]; 3 at 1 μM): 0.95 and 1.134
- Log2 reporter intensity values: USP8 ([3]; 3 at 4 μM): 0.8355 and 0.9159
- Log2 reporter intensity values ([3]; 3_1 μM, replicates A-B (C NaN)): -0.05241 and 0.1313
- Log2 reporter intensity values ([3]; 3_4 μM, replicates A-B (C NaN)): -0.167 and -0.08651
- Log2 reporter intensity values ([3]; 3 at 1 μM, replicates A-C): -0.07394 and 0.1811
- Log2 reporter intensity values ([3]; 3 at 4 μM, replicates A-C): -0.2593 and -0.1267
- Log2 reporter intensity values: USP14 ([4]; 3 at 1 μM): 1.142 and 1.077 and 1.079
- Log2 reporter intensity values: USP14 ([4]; 3 at 4 μM): 1.079 and 1.198 and 1.16
- Log2 reporter intensity values ([4]; 3_1 μM): 0.1415 and 0.07672 and 0.07886
- Log2 reporter intensity values ([4]; 3_4 μM): 0.07915 and 0.1978 and 0.16
- Log2 reporter intensity values ([4]; 3 at 1 μM): 0.1912 and 0.1069 and 0.1098
- Log2 reporter intensity values ([4]; 3 at 4 μM): 0.1102 and 0.2606 and 0.2145
- Log2 reporter intensity values: USP28 ([5]; 3 at 1 μM): 1.351 and 1.11 and 0.8433
- Log2 reporter intensity values: USP28 ([5]; 3 at 4 μM): 0.6356 and 0.4265 and 0.9775
- Log2 reporter intensity values ([5]; 3_1 μM): 0.3111 and 0.07023 and -0.1965
- Log2 reporter intensity values ([5]; 3_4 μM): -0.4041 and -0.6132 and -0.06225
- Log2 reporter intensity values ([5]; 3 at 1 μM): 0.4339 and 0.1505 and -0.246
- Log2 reporter intensity values ([5]; 3 at 4 μM): -0.6539 and -1.229 and -0.03288

SMILES: CC(=O)O/N=C1\C(=O)N(Cc2cc(Cl)ccc2Cl)c2ccc(Cl)cc21 [LDN]
- Log2 reporter intensity values: USP16 ([1]; LDN at 5 μM): 1.149 and 1.181 and 1.095
- Log2 reporter intensity values: USP16 ([1]; LDN at 25 μM): 1.216 and 1.053 and 1.129
- Log2 reporter intensity values ([1]; LDN at 5 μM): 0.2004 and 0.2395 and 0.1308
- Log2 reporter intensity values ([1]; LDN at 25 μM): 0.2823 and 0.07456 and 0.1753
- Log2 reporter intensity values ([1]; LDN_5 μM): 0.1468 and 0.1784 and 0.09274
- Log2 reporter intensity values ([1]; LDN_25 μM): 0.2139 and 0.05085 and 0.127
- Log2 reporter intensity values: USP24 ([2]; LDN at 5 μM): 0.8375 and 1.105 and 1.062
- Log2 reporter intensity values: USP24 ([2]; LDN at 25 μM): 1.15 and 1.015 and 1.054
- Log2 reporter intensity values ([2]; LDN at 5 μM): -0.2559 and 0.1441 and 0.08741
- Log2 reporter intensity values ([2]; LDN at 25 μM): 0.2018 and 0.02211 and 0.07566
- Log2 reporter intensity values ([2]; LDN_5 μM): -0.1659 and 0.1016 and 0.0591
- Log2 reporter intensity values ([2]; LDN_25 μM): 0.1468 and 0.01208 and 0.05048
- Log2 reporter intensity values: USP8 ([3]; LDN at 5 μM): 1.057 and 1.015
- Log2 reporter intensity values: USP8 ([3]; LDN at 25 μM): 1.052 and 0.9465
- Log2 reporter intensity values ([3]; LDN at 5 μM, replicates A-C): 0.08034 and 0.0217
- Log2 reporter intensity values ([3]; LDN at 25 μM, replicates A-C): 0.07275 and -0.07932
- Log2 reporter intensity values ([3]; LDN_5 μM, replicates A-B (C NaN)): 0.05482 and 0.0127
- Log2 reporter intensity values ([3]; LDN_25 μM, replicates A-B (C NaN)): 0.04927 and -0.05595
- Log2 reporter intensity values: USP14 ([4]; LDN at 5 μM): 1.178 and 1.18 and 1.165
- Log2 reporter intensity values: USP14 ([4]; LDN at 25 μM): 1.092 and 1.124 and 1.125
- Log2 reporter intensity values ([4]; LDN at 5 μM): 0.2361 and 0.2386 and 0.2201
- Log2 reporter intensity values ([4]; LDN at 25 μM): 0.1275 and 0.1688 and 0.1694
- Log2 reporter intensity values ([4]; LDN_5 μM): 0.1776 and 0.1796 and 0.1646
- Log2 reporter intensity values ([4]; LDN_25 μM): 0.0922 and 0.1239 and 0.1243
- Log2 reporter intensity values: USP28 ([5]; LDN at 5 μM): 1.021 and 0.7867 and 1.08
- Log2 reporter intensity values: USP28 ([5]; LDN at 25 μM): 0.7474 and 0.7545 and 1.193
- Log2 reporter intensity values ([5]; LDN at 5 μM): 0.03026 and -0.3461 and 0.1114
- Log2 reporter intensity values ([5]; LDN at 25 μM): -0.42 and -0.4063 and 0.2545
- Log2 reporter intensity values ([5]; LDN_5 μM): -0.01852 and -0.253 and 0.04055
- Log2 reporter intensity values ([5]; LDN_25 μM): -0.2923 and -0.2852 and 0.1532
